These results are taken from patent US8932627B2, “Liposomal compositions of glucocorticoid and glucocorticoid derivatives” (Yissum Research Development Company of the Hebrew …, priority 2004, dated 2015).

Data set [1] relates to Experimental Autoimmune Encephalomyelitis (EAE). In words: Treatment of severe disease burden in acute EAE (PLP induced). It counts as in vivo, SJL female mice. Here is the method:
In order to boost the immune system Pertussis Toxin (PT) 150 ng were injected intraperitoneally (i.p.) to the mice on the first day and 48 hours later.
Each mouse was examined daily for clinical signs of EAE using the following Table 4:
For mice showing a severe disease burden (determined by summing the scores of each of the 10 mice in the group and calculating the mean score per day, according to the following equation: Σtotal score of each mouse per day/number of mice in the group) a different treatment was applied. Specifically, after immunization as described above, mice were treated with 50 mg/kg BW SSL-MPS (days 10, 14, 18) or with free-MPS 50 mg/kg BW (days 10, 14, 18) or dextrose 5% (days 10, 14, 18). For each group, the incidence, MMS=mean maximal score; MDD=mean disease duration (days); MDO=mean day of onset and mean score were determined Table 7. Further, for each group the mean clinical scores at each time point was determined (FIG. 6B) as well as the survival curve (FIG. 6A).

The test system is the same in data set [2]. Put plainly: Treatment of acute EAE (PLP 139-151 induced) with SSL-MPS, single injection. Type of data set: in vivo, SJL female mice. The conditions noted are these: 50 mg/kg BW, 1 injection day 14, follow up 3 weeks.
The subject of data set [3] is BCL-1 (mouse B cell lymphoid leukemia). In words: Survival of BCL-1 tumor bearing mice. Type of data set: in vivo, BALB/C mice. As for the experimental part: In a further assay, survival of BCL-1 (mouse B cell lymphoid leukemia) tumor bearing mice was determined. […] Then, the mice were divided into groups and treated at days 5, 9, 12, 16, by i.v. injections, with the following treatment formulations: […]
Group I—5 mg/kg BW free-MPS;
Group II—25 mg/kg BW free-MPS;
Group III—5 mg/kg BW SSL-MPS;
Group IV—50 mg/kg BW SSL-MPS.

For data set [4] the following is noted: 26° C.; MPS 0.785-30 mM. As for the experimental part: Surface tension was measured using μtrouge S (Kibron Inc., Helsinki Finland). A solution containing GC derivative (300 μL) was placed in the well after calibration and zeroing of the sensor using pure water and air. The measurement was performed at 26° C.
For a further data set, the system named is BCL-1 lymphoma cells. Put plainly: Sensitivity of BCL-1 cell line to MPS. It counts as cell-based, mouse.
The test system of data set [5] is J6456 lymphoma cells (mouse T-cell lymphoma). Put plainly: Survival of mice injected i.p. with J6456 lymphoma cells. Type of data set: in vivo, BALB/C mice. Particulars: free-MPS days 5, 9, 12, SSL-MPS days 5, 9, 12, 16. As for the experimental part: At day 1 of the experiment BALB/C mice were injected i.p. with 1 million J6456 lymphoma cells (mouse T-cell lymphoma) then mice were divided into groups and treated by i.v. injections with free-MPS or SSL-MPS according to the following treatment schedule (Table 9).

The nature of data set [6]: State of aggregation (turbidity, light scattering at 90°) of MPS as function of pH. Type of data set: physicochemical. As for the experimental part:
Aggregation of MPS was determined from the change in turbidity measured as intensity of light scattered at 90° to excitation beam using a spectrofluormeter under conditions that MPS lack absorbance (excitation and emission at the same wavelength Ex=600 nm Em=600 nm). There is a large increase in the light scattered by MPS solution/dispersion due to formation of aggregates.
The intensity of scattered light (at 90° to the excitation), also defined as turbidity is proportional to concentration and to the size of the aggregates. [Zuidam, N. J. and Barenholz, Y., Biochim. Biophys. Acta 1368:115-128 (1998)]. The state of aggregation of MPS was tested in the following manner: To quartz cuvette MPS (2 ml) at concentration of ˜6.5 mg/ml MPS was added. The solution was tittered with HCl (1.756M) and light scattering using excitation and emission at (both at 600 nm with attenuation of 1%) and pH of the solution was monitored.

Data set [7] in a line: Precipitation of MPS by calcium ion (Ca-acetate solution). Type of data set: physicochemical. Particulars: pH 4.5; 600 mOsm Ca-acetate, 63° C., 5 mg/ml MPS, 40 minutes. Here is the method: To 600 mOsm Ca-acetate solution at 63° C. and at different pH points MPS was added at final concentration of 5 mg/ml, then mixed solution was incubated for 40 minutes after which the solution was centrifuged and the supernatant was analyzed using HPLC.

The conditions of data set [8]: ex vivo stability, after 24 hours, passively loaded liposomes; cited from earlier work.

On to `C[C@H]1C[C@@H]2[C@H]([C@@H](O)C[C@@]3(C)[C@H]2CC[C@]3(O)C(=O)COC(=O)CCC(=O)[O-])[C@@]2(C)C=CC(=O)C=C12.[Na+]` [MPS, methylprednisolone sodium hemisuccinate], for which, in data set [1] (50 mg/kg BW days 10, 14, 18), the “#dead” value was 3, the Incidence was 9/9, the “MDD (mean disease duration)” value was 10.11 ± 1.92 days and the “MDO (mean day of onset)” value is 12.67 ± 0.65. In data set [1] (50 mg/kg BW days 10, 14, 18), the “MMS (mean maximal score)” value worked out at 4.44 ± 0.50 and the “Mean Score” value came out at 2.62 ± 0.208. Moreover, the survival / mortality entry in data set [1] (50 mg/kg BW days 10, 14, 18, FIG. 6A) was “there was mortality”. In addition, in data set [1] (50 mg/kg BW days 10, 14, 18, FIG. 6B), the “mean clinical score at day 19” value is recorded as ~3. Further, in [2], the Incidence is reported as 7/9, the “MDD (mean disease duration)” value was determined as 10.9 ± 2.7 days, the “MDO (mean day of onset)” value is reported as 16.7 ± 1.83 and the “MMS (mean maximal score)” value was 2.35 ± 0.39. Moreover, the “Mean Score” value in data set [2] worked out at 0.861 ± 0.105. The same molecule registered a Survival median in data set [3] (5 mg/kg BW i.v. days 5, 9, 12, 16) of 19. For the same molecule, the Survival median in data set [3] (25 mg/kg BW i.v. days 5, 9, 12, 16) is on record as 19. Besides, in data set [4], the “surface activity (surface tension)” value is given as “surface active at all concentrations used”. In addition, the “sensitivity of the cell line” value in the data set on BCL-1 lymphoma cells (BCL-1) is on record as “highly sensitive”. Also, the IC50 entry in the data set with BCL-1 lymphoma cells (BCL-1 lymphoma cells (B cell line)) is “in the nmolar range”. In data set [5] (15 mg/kg BW i.v.), the Median survival is listed as 16. Besides, the Median survival in data set [5] (50 mg/kg BW i.v.) is 16. Further, the “state of aggregation (turbidity)” value in [6] (acidic pH, FIG. 1A) is recorded as “it aggregates”. In addition, the “state of aggregation (turbidity)” value in data set [6] (pH 7.2, FIG. 1A) is given as “non-aggregated water soluble”. In data set [7], the “% MPS precipitated” value came to 97%.

Regarding triamcinolone acetonide phosphate, the “acidic corticosteroid retained by the liposome” value in data set [8] is recorded as “more than 75%”.
